In PubChem BioAssay (NCI):
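Test compounds were applied to cells in 96-well plates for 48 hours at 5 doses. The concentration for 50% growth inhibition is given as GI50. TGI: total growth inhibition.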

Assays:
Experiment in all cases: NCI tumour cell line growth inhibition, 48 h
[1] = system: HOP-62 NSCLC
[2] = system: HOP-92 NSCLC
[3] = system: HS 578T breast
[4] = system: NCI-H226 lung
[5] = system: OVCAR-4 ovarian
[6] = system: OVCAR-8 ovarian
[7] = system: SK-OV-3 ovarian
[8] = system: SR leukemia
[9] = system: SW-620 colon
[10] = system: UACC-62 melanoma

Structure (SMILES)	TGI [1]	TGI [2]	TGI [3]	TGI [4]	TGI [5]	TGI [6]	TGI [7]	TGI [8]	TGI [9]	TGI [10]	GI50 [1]	GI50 [3]	GI50 [4]	GI50 [5]	GI50 [6]	GI50 [7]	GI50 [8]	GI50 [9]	GI50 [10]
COc1ccc(NC(=S)NN=C(C)c2cccc(C(C)=NNC(=S)Nc3ccc(OC)cc3)n2)cc1	> 100 µM	> 100 µM	> 100 µM	> 100 µM	> 100 µM	> 100 µM	> 100 µM	> 100 µM	> 100 µM	> 100 µM	–	–	–	–	–	–	–	–	–
COc1c2cc(C(C)(C)C)cc1CSCc1cc(C(C)(C)C)cc(c1OC)CCCCC2	> 50 µM	–	> 50 µM	> 50 µM	–	> 50 µM	> 50 µM	> 50 µM	> 50 µM	> 50 µM	–	–	–	–	–	–	–	–	–
NCCC1(N)CCNCC1	–	> 100 µM	> 100 µM	> 100 µM	> 100 µM	> 100 µM	> 100 µM	> 100 µM	> 100 µM	> 100 µM	–	–	–	–	–	–	–	–	–
CCOC(=O)c1cc2cc(Cc3ccc4[nH]c(C(=O)OCC)cc4c3)ccc2[nH]1	23 µM	27.8 µM	72.8 µM	62.4 µM	21.4 µM	23.6 µM	55.4 µM	> 100 µM	> 100 µM	36.3 µM	–	–	–	–	–	–	–	–	–
N#Cc1c(-c2ccco2)c2c(n(C3OC(CO)C(O)C(O)C3O)c1=S)CCCC2 (stereo unspecified)	> 100 µM	> 100 µM	> 100 µM	> 100 µM	> 100 µM	> 100 µM	> 100 µM	> 100 µM	–	> 100 µM	–	–	–	–	–	–	–	–	–
COc1ccc(-n2c(CCCC(=O)O)nc3c2C(=O)c2ccccc2C3=O)cc1	–	> 100 µM	> 100 µM	–	> 100 µM	> 100 µM	> 100 µM	> 100 µM	> 100 µM	> 100 µM	–	–	–	–	–	–	–	–	–
CC1(C)CCc2c(cc3c(c2O)CCC(C)(C)O3)O1	> 100 µM	–	> 100 µM	> 100 µM	> 100 µM	> 100 µM	> 100 µM	> 100 µM	> 100 µM	> 100 µM	–	–	–	–	–	–	–	–	–
O=c1[nH]cnc2c1nnn2CCCn1nnc2c(=O)[nH]cnc21	> 100 µM	> 100 µM	–	> 100 µM	> 100 µM	> 100 µM	> 100 µM	> 100 µM	> 100 µM	> 100 µM	–	–	–	–	–	–	–	–	–
C[N+]1(C)CC=C(N2CCOCC2)CC1	> 10 µM	–	> 10 µM	> 10 µM	> 10 µM	> 10 µM	> 10 µM	> 10 µM	> 10 µM	> 10 µM	–	–	–	–	–	–	–	–	–
N#Cc1[nH]c(=O)n(-c2ccc([N+](=O)[O-])cc2)c1N	> 10 µM	> 10 µM	> 10 µM	> 10 µM	> 10 µM	> 10 µM	> 10 µM	> 10 µM	> 10 µM	> 10 µM	–	–	–	–	–	–	–	–	–
CCOC(=O)C1(Cc2ccc(C)cc2)Cc2ccc(C)cc2C1=O (stereo unspecified)	> 100 µM	> 100 µM	> 100 µM	> 92.4 µM	> 100 µM	> 96.6 µM	> 100 µM	68.8 µM	> 100 µM	> 100 µM	–	–	–	–	–	–	–	–	–
COc1c2nc(CCl)n(C)c(=O)c2c(OC)c2c(=O)n(C)c(CCl)nc12	5.7 µM	> 100 µM	95 µM	13.7 µM	> 100 µM	13.2 µM	–	–	2.6 µM	–	–	–	–	–	–	–	–	–	–
O=C(NCc1cn(Cc2cccc(Oc3ccccc3)c2)nn1)c1cccnc1Nc1ccccc1	> 100 µM	–	> 100 µM	> 100 µM	> 100 µM	> 100 µM	15.1 µM	> 100 µM	> 100 µM	33.8 µM	5.58 µM	3.68 µM	3.24 µM	5.42 µM	4.39 µM	3.79 µM	2.57 µM	3.97 µM	3.02 µM
Cc1ccc(N=Nc2c(O)c3ccccc3[nH]c2=O)c(S(=O)(=O)N(C)C)c1	> 100 µM	> 100 µM	> 100 µM	> 100 µM	> 100 µM	> 100 µM	> 100 µM	–	> 100 µM	> 100 µM	–	–	–	–	–	–	–	–	–
C/C(=N\Nc1nc2cc(C)ccc2s1)c1ccccn1	3.62 µM	10.3 µM	39 µM	9.11 µM	> 60.5 µM	12.1 µM	43.1 µM	> 21.8 µM	> 20.2 µM	–	–	–	–	–	–	–	–	–	–
COC(=O)C1Cc2c(C)cccc2C1=O (stereo unspecified)	> 100 µM	> 100 µM	> 100 µM	> 100 µM	> 100 µM	> 100 µM	> 100 µM	> 100 µM	> 100 µM	> 100 µM	–	–	–	–	–	–	–	–	–
O=c1c2cc([N+](=O)[O-])ccc2n2n1Cc1ccccc1CC2	> 100 µM	–	> 100 µM	> 100 µM	> 100 µM	> 100 µM	> 100 µM	> 100 µM	> 100 µM	> 100 µM	–	–	–	–	–	–	–	–	–
CN(C)CC1CCC/C(=C\c2ccc(N(C)C)cc2)C1=O (stereo unspecified)	33 µM	9.79 µM	26 µM	64 µM	4.4 µM	18 µM	31.7 µM	–	3.29 µM	29.2 µM	–	–	–	–	–	–	–	–	–
O=c1cnn(C2OC(CO)C(O)C(F)C2O)c(=O)[nH]1 (stereo unspecified)	–	> 100 µM	> 100 µM	> 100 µM	> 100 µM	> 100 µM	> 100 µM	> 100 µM	> 100 µM	> 100 µM	–	–	–	–	–	–	–	–	–
COc1ccc2c(c1O)-c1c(OC)c(OC)cc3c1[C@H](C2)[N+](C)(C)CC3	–	> 100 µM	> 100 µM	> 100 µM	> 100 µM	> 100 µM	> 100 µM	–	> 100 µM	> 100 µM	–	–	–	–	–	–	–	–	–
Oc1ccc(-c2cc(-c3c(O)cc(O)cc3O)on2)cc1	> 100 µM	–	> 100 µM	> 100 µM	> 100 µM	> 100 µM	> 100 µM	> 100 µM	> 100 µM	> 100 µM	–	–	–	–	–	–	–	–	–
CCOC(=O)CC(C)C(C#N)(OP1(=O)OC(c2ccccc2)C(C)N1C)c1ccccc1 (stereo unspecified)	> 100 µM	> 100 µM	> 100 µM	–	–	> 100 µM	> 100 µM	> 100 µM	> 100 µM	> 100 µM	–	–	–	–	–	–	–	–	–
